This note sets out measurements from patent US8586550B2, “Thiazole derivatives as SGLT2 inhibitors and pharmaceutical composition comprising same” (Green Cross Corporation, priority 2010, dated 2013).

Structures are written as SMILES.

The experiment concerns the target T1, Human SGLT2 (hSGLT2) (Homo sapiens, UniProt P31639).
T1 construct: expressed in transfected cells
T1 sequence (P31639 1-672): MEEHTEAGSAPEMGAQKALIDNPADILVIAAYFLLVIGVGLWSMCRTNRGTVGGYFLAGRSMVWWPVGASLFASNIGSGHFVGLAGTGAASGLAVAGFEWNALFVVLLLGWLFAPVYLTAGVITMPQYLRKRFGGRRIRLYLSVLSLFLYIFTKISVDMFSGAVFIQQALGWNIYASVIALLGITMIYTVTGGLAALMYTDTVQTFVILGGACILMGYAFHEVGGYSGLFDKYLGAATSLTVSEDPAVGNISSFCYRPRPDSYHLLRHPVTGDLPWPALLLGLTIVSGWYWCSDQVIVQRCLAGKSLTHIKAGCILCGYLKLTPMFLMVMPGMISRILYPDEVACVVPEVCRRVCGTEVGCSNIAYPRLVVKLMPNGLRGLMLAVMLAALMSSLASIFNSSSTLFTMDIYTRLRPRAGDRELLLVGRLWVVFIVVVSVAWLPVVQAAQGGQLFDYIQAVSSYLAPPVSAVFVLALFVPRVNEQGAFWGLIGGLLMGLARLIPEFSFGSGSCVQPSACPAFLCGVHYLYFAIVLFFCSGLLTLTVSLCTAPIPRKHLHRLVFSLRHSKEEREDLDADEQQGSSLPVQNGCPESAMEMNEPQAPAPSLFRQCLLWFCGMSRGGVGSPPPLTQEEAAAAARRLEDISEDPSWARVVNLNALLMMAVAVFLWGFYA
The experiment is described as follows: Sodium-dependent glucose transport (14C-AMG uptake) assay in CHO cells stably expressing hSGLT2. The class given is cell-based. Particulars: CHO cells expressing hSGLT2, 14C-AMG uptake, 37° C. for 2 h; single determinations; read-out: hSGLT2 Inhibitory Activity IC50. In a few lines:
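CHO cells stably expressing human SGLT2, preincubated 10 min at 37 °C in sodium-free choline buffer, then 2 h at 37 °C in Na+ buffer with 1 mM AMG plus 8 μM 14C-AMG and inhibitor. Washed cells counted by scintillation; IC50 by nonlinear regression.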
In the case of `CCOC(=O)OC[C@H]1O[C@@H](c2ccc(Cl)c(Cc3ncc(-c4ccsc4)s3)c2)[C@H](O)[C@@H](O)[C@@H]1O` [Example 165, ((2R,3S,4R,5R,6S)-6-(4-Chloro-3-((5-(thiophen-3-yl)thiazol-2-yl)methyl)phenyl)-3,4,5-trihydroxytetrahydro-2H-pyran-2-yl)methyl ethyl carbonate], the IC50 was found to be 7.39 nM.

Turning to `CCSc1cnc(Cc2cc([C@@H]3O[C@H](CO)[C@@H](O)[C@H](O)[C@H]3O)ccc2Cl)s1` [Example 24, (2S,3R,4R,5S,6R)-2-(4-Chloro-3-((5-(ethylthio)thiazol-2-yl)methyl)phenyl)-6-(hydroxymethyl)-tetrahydro-2H-pyran-3,4,5-triol], the IC50 was found to be 30.9 nM.

Take `COc1c(Cc2ncc(C3CCCC3)s2)cc([C@@H]2O[C@H](CO)[C@@H](O)[C@H](O)[C@H]2O)c2ccccc12` [Example 101, (2S,3R,4R,5S,6R)-2-(3-((5-Cyclopentylthiazol-2-yl)methyl)-4-methoxynaphthalen-1-yl)-6-(hydroxymethyl)-tetrahydro-2H-pyran-3,4,5-triol]: the IC50 turned out to be 26.8 nM.

As to `CCCCCc1cnc(Cc2cn([C@@H]3O[C@H](CO)[C@@H](O)[C@H](O)[C@H]3O)c3ccccc23)s1` [Example 136, (2R,3S,4S,5R,6R)-2-(Hydroxymethyl)-6-(3-((5-pentylthiazol-2-yl)methyl)-1H-indol-1-yl)tetrahydro-2H-pyran-3,4,5-triol], the IC50 worked out at 210 nM.

For `CCOC(=O)c1cnc(Cc2cc([C@@H]3O[C@H](CO)[C@@H](O)[C@H](O)[C@H]3O)ccc2Cl)s1` [Example 106, Ethyl 2-(2-chloro-5-((2S,3R,4R,5S,6R)-3,4,5-trihydroxy-6-(hydroxymethyl)-tetrahydro-2H-pyran-2-yl)benzyl)thiazole-5-carboxylate], the IC50 stood at 50.3 nM.

Regarding `OC[C@H]1O[C@@H](c2ccc(Br)c(Cc3ncc(-c4ccco4)s3)c2)[C@H](O)[C@@H](O)[C@@H]1O` [Example 46, (2S,3R,4R,5S,6R)-2-(4-Bromo-3-((5-(furan-2-yl)thiazol-2-yl)methyl)phenyl)-6-(hydroxymethyl)-tetrahydro-2H-pyran-3,4,5-triol], the IC50 is 1.89 nM.

As for `CCCc1cnc(Cc2cc([C@@H]3O[C@H](CO)C(O)[C@H](O)[C@H]3O)c3ccccc3c2OC)s1` (stereo in doubt) [Example 99, (2R,3R,4R,5R,6S)-2-(Hydroxymethyl)-6-(4-methoxy-3-((5-propylthiazol-2-yl)methyl)naphthalen-1-yl)-tetrahydro-2H-pyran-3,4,5-triol], the IC50 was 19.2 nM.

On to `COCCOc1cc(Cl)c(Cc2ncc(-c3ccco3)s2)cc1[C@@H]1O[C@H](CO)[C@@H](O)[C@H](O)[C@H]1O` [Example 117, (2S,3R,4R,5S,6R)-2-(4-Chloro-5-((5-(furan-2-yl)thiazol-2-yl)methyl)-2-(2-methoxyethoxy)phenyl)-6-(hydroxymethyl)-tetrahydro-2H-pyran-3,4,5-triol], for which the IC50 turned out to be 5.55 nM.

Take `OC[C@H]1O[C@@H](c2cc(Cc3ncc(-c4ccco4)s3)c3ccccc3c2)[C@H](O)[C@@H](O)[C@@H]1O` [Example 104, (2S,3R,4R,5S,6R)-2-(4-((5-(Furan-2-yl)thiazol-2-yl)methyl)naphthalen-2-yl)-6-(hydroxymethyl)-tetrahydro-2H-pyran-3,4,5-triol]: the IC50 amounted to 100 nM.

For the compound `OCCOC[C@H]1O[C@@H](c2ccc(Cl)c(Cc3ncc(-c4ccco4)s3)c2)[C@H](O)[C@@H](O)[C@@H]1O` [Example 141, (2S,3R,4R,5S,6R)-2-(4-Chloro-3-((5-(furan-2-yl)thiazol-2-yl)methyl)phenyl)-6-((2-hydroxyethoxy)methyl)tetrahydro-2H-pyran-3,4,5-triol], the IC50 is 30.9 nM.

With `Cc1ccc(-c2cnc(Cc3cc([C@@H]4O[C@H](CO)[C@@H](O)[C@H](O)[C@H]4O)ccc3C)s2)cc1` [Example 36, (2R,3S,4R,5R,6S)-2-(Hydroxymethyl)-6-(4-methyl-3-((5-p-tolylthiazol-2-yl)methyl)phenyl)tetrahydro-2H-pyran-3,4,5-triol], the IC50 was 21.5 nM.

The term IC50 denotes the concentration at which inhibition is half-maximal.
